{"source": "patent US8168792B2", "about": "“Heterocyclic antiviral compounds” (Roche Palo Alto LLC, priority 2009, dated 2012)", "key": {"[1]": {"tested_on": "HCV", "conditions": "monotherapy / sole treatment; cited from earlier work"}, "[2]": {"target": "T1, HCV polymerase (NS5B570n-Con1) (Hepatitis C virus genotype 1b, UniProt Q9WMX2)", "T1 construct": "contains a 21 amino acid deletion at the C-terminus relative to the full-length HCV polymerase; 6-histidine (N); made in house; host or cells: E. coli BL21(DE) pLysS, plasmid pET17b", "assay": "HCV NS5B RNA polymerase activity (incorporation of radiolabeled nucleotide into RNA)", "assay_type": "biochemical, HCV Con1 strain", "description": "The enzymatic activity of HCV polymerase (NS5B570n-Con1) was measured as the incorporation of radiolabeled nucleotide monophosphates into acid insoluble RNA products. Unincorporated radio labeled substrate was removed by filtration and scintillant was added to the washed and dried filter plate containing radio labeled RNA product. The amount of RNA product generated by NS5B570-Con1 at the end of the reaction was directly proportional to the amount of light emitted by the scintillant.\nThe N-terminal 6-histidine tagged HCV polymerase, derived from HCV Con1 strain, genotype 1b (NS5B570n-Con1) contains a 21 amino acid deletion at the C-terminus relative to the full-length HCV polymerase and was purified from E. coli strain BL21(DE) pLysS. The construct, containing the coding sequence of HCV NS5B Con1 (GenBank accession number AJ242654) was inserted into the plasmid construct pET17b, downstream of a T7 promoter expression cassette and transformed into E. coli. A single colony was grown overnight as a starter culture and later used inoculate 10 L of LB media supplemented with 100 μg/mL ampicillin at 37° C. Protein expression was induced by the addition of 0.25 mM isopropyl-β-D-thiogalactopyranoside (IPTG) when optical density at […] of the culture was between 0.6 and 0.8 and cells were harvested after 16 to 18 h at 30° C. NS5B570n-Con1 was purified to homogeneity using a three-step protocol including subsequent column chromatography on Ni-NTA, SP-Sepharose HP and Superdex 75 resins.\nEach 50 μl enzymatic reaction contained 20 nM RNA template derived from the complementary sequence of the Internal Ribosome Entry Site (cIRES), 20 nM NS5B570n-Con1 enzyme, 0.5 μCi of tritiated UTP (Perkin Elmer catalog no. TRK-412; specific activity: 30 to 60 Ci/mmol; stock solution concentration from 7.5×10^-5 M to 20.6×10^-6 M), 1 μM each ATP, CTP, and GTP, 40 mM Tris-HCl pH 8.0, 40 mM NaCl, 4 mM DTT (dithiothreitol), 4 mM MgCl2, and 5 μl of compound serial diluted in DMSO. Reaction mixtures were assembled in 96-well filter plates (cat #MADVN0B, Millipore Co.) and incubated for 2 h at 30° C. Reactions were stopped by addition of 10% final (v/v) trichloroacetic acid and incubated for 40 min at 4° C. Reactions were filtered, washed with 8 reaction volumes of 10% (v/v) trichloroacetic acetic acid, 4 reaction volumes of 70% (v/v) ethanol, air dried, and 25 μl of scintillant (Microscint 20, Perkin-Elmer) was added to each reaction well.\nThe amount of light emitted from the scintillant was converted to counts per minute (CPM) on a Topcount® plate reader (Perkin-Elmer, Energy Range: Low, Efficiency Mode Normal, Count Time: 1 min, Background Subtract: none, Cross talk reduction: Off).\nData was analyzed in Excel® (Microsoft) and ActivityBase® (Idbs®). The reaction in the absence of enzyme was used to determine the background signal, which was subtracted from the enzymatic reactions. Positive control reactions were performed in the absence of compound, from which the background corrected activity was set as 100% polymerase activity. All data was expressed as a percentage of the positive control. The compound concentration at which the enzyme-catalyzed rate of RNA synthesis was reduced by 50% (IC50) was calculated by fitting\n[formula] equation (i) to the data where “Y” corresponds to the relative enzyme activity (in %), “% Min” is the residual relative activity at saturating compound concentration, “% Max” is the relative maximum enzymatic activity, “X” corresponds to the compound concentration, and “S” is the Hill coefficient (or slope)."}, "[3]": {"tested_on": "HCV replicon (genotype 1b, cell line 2209-23)", "assay": "HCV replicon assay (Renilla luciferase reporter)", "assay_type": "cell-based, HCV genotype 1b", "conditions": "Hepatitis C virus, 72 h; three days incubation, luciferase readout"}, "[4]": {"assay": "in vitro", "conditions": "human"}}, "data": [{"smiles": "NC(=O)c1ncn([C@@H]2O[C@H](CO)[C@@H](O)[C@H]2O)n1", "note": "[ribavirin, 1-((2R,3R,4S,5R)-3,4-Dihydroxy-5-hydroxymethyl-tetrahydro-furan-2-yl)-1H-[1,2,4]triazole-3-carboxylic acid amide]", "values": [{"measurement": "serum levels of HCV-RNA", "setting": "[1]", "value": "does not lower serum levels of HCV-RNA"}]}, {"smiles": "CC(C)(C)c1cc(-c2ccc[nH]c2=O)c2[nH]c(=O)ccc2c1", "note": "[Compound I-2]", "values": [{"measurement": "IC50", "setting": "[2]", "value": 332, "unit": "nM"}, {"measurement": "melting point", "value": "> 300", "unit": "°C"}]}, {"smiles": "CC(C)(C)c1cc(-c2ccc[nH]c2=O)c2[nH]c(=O)c(-c3ccc(S(N)(=O)=O)cc3)cc2c1", "note": "[Compound I-11]", "values": [{"measurement": "IC50", "setting": "[2]", "value": 46, "unit": "nM"}, {"measurement": "melting point", "value": "250 to 252", "unit": "°C"}]}, {"smiles": "CC(C)(C)c1cc(-c2ccc[nH]c2=O)c2oc(=O)c(-c3ccc(N)cc3)cc2c1", "note": "[Compound I-3]", "values": [{"measurement": "IC50", "setting": "[2]", "value": 34, "unit": "nM"}, {"measurement": "melting point", "value": "> 300", "unit": "°C"}]}, {"smiles": "CC(C)(C)c1cc(-c2ccc[nH]c2=O)c2[nH]c(=O)c(-c3cccc(NS(C)(=O)=O)c3)cc2c1", "note": "[Compound I-10, N-{3-[6-tert-Butyl-2-oxo-8-(2-oxo-1,2-dihydro-pyridin-3-yl)-1,2-dihydro-quinolin-3-yl]-phenyl}-methanesulfonamide]", "values": [{"measurement": "IC50", "setting": "[2]", "value": 531, "unit": "nM"}, {"measurement": "melting point", "value": "233 to 235", "unit": "°C"}]}, {"smiles": "CC(C)(C)c1cc(-c2ccc[nH]c2=O)c2oc(=O)c(-c3ccc(NS(C)(=O)=O)cc3)cc2c1", "note": "[Compound I-5, N-{4-[6-tert-Butyl-2-oxo-8-(2-oxo-1,2-dihydro-pyridin-3-yl)-2H-chromen-3-yl]-phenyl}-methanesulfonamide]", "values": [{"measurement": "IC50", "setting": "[2]", "value": 5, "unit": "nM"}, {"measurement": "IC50", "setting": "[3]", "value": 10, "unit": "nM"}, {"measurement": "melting point", "value": "225 to 227", "unit": "°C"}, {"measurement": "CC50 at 3 days", "setting": "[4]", "value": 95100, "unit": "nM"}]}, {"smiles": "CC(C)(C)c1cc(-c2ccc[nH]c2=O)c2oc(=O)ccc2c1", "note": "[Compound I-1, 3-(6-tert-Butyl-2-oxo-2H-chromen-8-yl)-1H-pyridin-2-one]", "values": [{"measurement": "IC50", "setting": "[2]", "value": 1530, "unit": "nM"}, {"measurement": "melting point", "value": "> 300", "unit": "°C"}]}, {"smiles": "Cn1c(=O)c(-c2ccccc2)cc2cc(C(C)(C)C)cc(-c3ccc[nH]c3=O)c21", "note": "[Compound I-6]", "values": [{"measurement": "IC50", "setting": "[2]", "value": 456, "unit": "nM"}, {"measurement": "melting point", "value": "290 to 292", "unit": "°C"}]}, {"smiles": "Cn1c(=O)c(-c2ccc(O)cc2)cc2cc(C(C)(C)C)cc(-c3ccc[nH]c3=O)c21", "note": "[Compound I-7]", "values": [{"measurement": "IC50", "setting": "[2]", "value": 900, "unit": "nM"}, {"measurement": "melting point", "value": "> 300", "unit": "°C"}]}, {"smiles": "Cn1c(=O)c(-c2ccc(NS(C)(=O)=O)cc2)cc2cc(C(C)(C)C)cc(-c3ccc[nH]c3=O)c21", "note": "[Compound I-8, N-{4-[6-tert-Butyl-1-methyl-2-oxo-8-(2-oxo-1,2-dihydro-pyridin-3-yl)-1,2-dihydro-quinolin-3-yl]-phenyl}-methanesulfonamide]", "values": [{"measurement": "IC50", "setting": "[2]", "value": 6, "unit": "nM"}, {"measurement": "melting point", "value": "> 300", "unit": "°C"}]}, {"smiles": "CC(C)(C)c1cc(-c2ccc[nH]c2=O)c2[nH]c(=O)c(-c3cccc(C(N)=O)c3)cc2c1", "note": "[Compound I-13]", "values": [{"measurement": "IC50", "setting": "[2]", "value": 36, "unit": "nM"}, {"measurement": "melting point", "value": "255 to 257", "unit": "°C"}]}, {"smiles": "CC(C)(C)c1cc2c(c(-c3ccc[nH]c3=O)c1)OC(O)C(c1ccc(NS(C)(=O)=O)cc1)C2", "note": "(stereo not shown) [Compound I-18, N-{4-[6-tert-Butyl-2-hydroxy-8-(2-oxo-1,2-dihydro-pyridin-3-yl)-chroman-3-yl]-phenyl}-methanesulfonamide]", "values": [{"measurement": "IC50", "setting": "[2]", "value": 7, "unit": "nM"}, {"measurement": "melting point", "value": "228 to 230", "unit": "°C"}]}, {"smiles": "CC(C)(C)c1cc(-c2ccc[nH]c2=O)c2[nH]c(=O)c(-c3ccc(NS(C)(=O)=O)cc3)cc2c1", "note": "[Compound I-9]", "values": [{"measurement": "IC50", "setting": "[2]", "value": 5, "unit": "nM"}, {"measurement": "melting point", "value": "> 300", "unit": "°C"}]}, {"smiles": "CC(C)(C)c1cc(-c2ccc[nH]c2=O)c2c(=O)oc(-c3ccc(NS(C)(=O)=O)cc3)cc2c1", "note": "[Compound I-15, N-{4-[6-tert-Butyl-1-oxo-8-(2-oxo-1,2-dihydro-pyridin-3-yl)-1H-isochromen-3-yl]-phenyl}methanesulfonamide]", "values": [{"measurement": "IC50", "setting": "[2]", "value": 8, "unit": "nM"}]}, {"smiles": "CC(C)(C)c1cc(-c2ccc[nH]c2=O)c2c(=O)[nH]c(-c3ccc(NS(C)(=O)=O)cc3)cc2c1", "note": "[Compound I-14, N-{4-[6-tert-Butyl-1-oxo-8-(2-oxo-1,2-dihydro-pyridin-3-yl)-1,2-dihydro-isoquinolin-3-yl]-phenyl}-methanesulfonamide]", "values": [{"measurement": "IC50", "setting": "[2]", "value": 16, "unit": "nM"}, {"measurement": "melting point", "value": "> 300", "unit": "°C"}]}, {"smiles": "Cn1c(=O)c(-c2ccc(S(N)(=O)=O)cc2)cc2cc(C(C)(C)C)cc(-c3ccc[nH]c3=O)c21", "note": "[Compound I-12]", "values": [{"measurement": "IC50", "setting": "[2]", "value": 2370, "unit": "nM"}, {"measurement": "melting point", "value": "> 300", "unit": "°C"}]}, {"smiles": "CC(C)(C)c1cc(-c2ccc[nH]c2=O)c2[nH]c(=O)c(-c3ccccc3)cc2c1", "note": "[Compound I-4]", "values": [{"measurement": "IC50", "setting": "[2]", "value": 91, "unit": "nM"}, {"measurement": "melting point", "value": "200 to 202", "unit": "°C"}]}]}
